Test results as given in ChEMBL document CHEMBL5331071, “Structure-activity relationship study of amidobenzimidazole derivatives as stimulator of interferon genes (STING) agonists” (Eur J Med Chem, 2023).

Assays:
[1] = target: T1, Stimulator of interferon genes protein (Homo sapiens, UniProt Q86WV6); experiment: Agonist activity at STING in human THP1-Dual cells incubated for 20 hrs by Quanti-luc reagent based assay; format: cell-based
[2] = target: T1, Stimulator of interferon genes protein; experiment: Agonist activity at STING in human […] KO-STING cells incubated for 20 hrs by Quanti-luc reagent based assay; format: cell-based, THP1-Dual KO-STING
[3] = system: THP1-Dual; experiment: Cytotoxicity against human THP1-Dual habouring STING assessed as inhibition of cell growth by MTS assay; format: functional, cell-based
[4] = Cytotoxicity against human THP1-Dual KO-STING cells assessed as inhibition of cell growth by MTS assay; format: functional, cell-based

T1 sequence (Q86WV6 whole entry): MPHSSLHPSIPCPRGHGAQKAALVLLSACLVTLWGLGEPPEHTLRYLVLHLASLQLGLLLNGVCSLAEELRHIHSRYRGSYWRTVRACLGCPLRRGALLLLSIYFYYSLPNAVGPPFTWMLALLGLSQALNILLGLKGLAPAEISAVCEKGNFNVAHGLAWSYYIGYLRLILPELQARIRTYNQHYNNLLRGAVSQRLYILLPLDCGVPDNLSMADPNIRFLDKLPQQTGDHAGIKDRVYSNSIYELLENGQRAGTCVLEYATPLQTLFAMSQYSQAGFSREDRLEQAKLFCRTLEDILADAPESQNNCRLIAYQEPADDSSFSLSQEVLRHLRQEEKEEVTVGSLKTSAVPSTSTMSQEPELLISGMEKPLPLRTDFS

| SMILES | EC50 [1] [µM] | EC50 [2] [µM] | IC50 [3] [µM] | IC50 [4] [µM] |
| --- | --- | --- | --- | --- |
| CCn1nc(C)cc1C(=O)Nc1nc2cc(C(N)=O)cc(OCCCOC)c2n1NCCCC(=O)NCc1ccc(F)cc1 | 2.96 | > 100 | > 100 | > 100 |
| CCn1nc(C)cc1C(=O)Nc1nc2cc(C(N)=O)cc(OCC3COC3)c2n1NCCCC(=O)NCc1ccc(F)cc1 | 7.13 | > 100 | > 100 | > 100 |
| CCn1nc(C)cc1C(=O)Nc1nc2cc(C(N)=O)cc(OC)c2n1NCCCC(=O)NCc1ccc(F)cc1F | 3.57 | > 100 | > 100 | > 100 |
| CCn1nc(C)cc1C(=O)Nc1nc2cc(C(N)=O)cc(OCC3CC3)c2n1NCCCNC(=O)c1ccc2ccccc2c1 | 1.12 | > 100 | > 100 | 12.1 |
| CCn1nc(C)cc1C(=O)Nc1nc2cc(C(N)=O)cc(OC)c2n1NCCCC(=O)NCc1ccc(Br)cc1F | 5.28 | > 100 | > 100 | > 100 |
| CCn1nc(C)cc1C(=O)Nc1nc2cc(C(N)=O)cc(OC)c2n1NCCCC(=O)NCc1ccc(Oc2ccccc2)cc1 | 28.8 | > 100 | > 100 | > 100 |
| CCn1nc(C)cc1C(=O)Nc1nc2cc(C(N)=O)cc(OC)c2n1Cc1cn(CCc2ccccc2)nn1 | > 100 | > 100 | > 100 | > 100 |
| CCn1nc(C)cc1C(=O)Nc1nc2cc(C(N)=O)cc(OC)c2n1CCOCCNC(=O)c1ccc(C(F)(F)F)cc1 | > 100 | > 100 | > 100 | > 100 |
| CCn1nc(C)cc1C(=O)Nc1nc2cc(C(N)=O)cc(OC)c2n1Cc1cn(Cc2ccc3ccccc3c2)nn1 | > 100 | > 100 | > 100 | > 100 |
| CCn1nc(C)cc1C(=O)Nc1nc2cc(C(N)=O)cc(OC)c2n1CCCC(=O)Nc1ccc2ccccc2c1 | 9.83 | > 100 | > 100 | > 100 |
| CCn1nc(C)cc1C(=O)Nc1nc2cc(C(N)=O)cc(OC)c2n1NCCCC(=O)NCc1ccccc1F | 4.17 | > 100 | > 100 | > 100 |
| CCn1nc(C)cc1C(=O)Nc1nc2cc(C(N)=O)cc(OC)c2n1CCCNC(=O)c1ccc(-c2ccccc2)cc1 | > 100 | > 100 | > 100 | > 100 |
| CCn1nc(C)cc1C(=O)Nc1nc2cc(C(N)=O)cc(OC)c2n1NCCCC(=O)NCc1ccc(C(F)(F)F)cc1 | 13 | > 100 | > 100 | > 100 |
| CCn1nc(C)cc1C(=O)Nc1nc2cc(C(N)=O)cc(OC)c2n1NCCCNC(=O)NCc1ccccc1 | 8.52 | > 100 | > 100 | > 100 |
| CCn1nc(C)cc1C(=O)Nc1nc2cc(C(N)=O)cc(OC)c2n1NCCCC(=O)NCc1ccc(OC)cc1 | 4.1 | > 100 | > 100 | > 100 |
| CCn1nc(C)cc1C(=O)Nc1nc2cc(C(N)=O)cc(OC)c2n1CCCN1CCC(C(=O)Nc2ccc3ccccc3c2)CC1 | > 100 | > 100 | > 100 | > 100 |
| CCn1nc(C)cc1C(=O)Nc1nc2cc(C(N)=O)cc(OC)c2n1CCCN1CCN(Cc2ccc3ccccc3c2)C(=O)C1 | > 100 | > 100 | > 100 | > 100 |
| CCn1nc(C)cc1C(=O)Nc1nc2cc(C(N)=O)cc(OC)c2n1NCCCC(=O)NCc1ccc(Cl)cc1C(F)(F)F | > 100 | > 100 | > 100 | > 100 |
| CCn1nc(C)cc1C(=O)Nc1nc2cc(C(N)=O)cc(OCC3COC3)c2n1NCCCNC(=O)c1ccc2ccccc2c1 | 39.4 | > 100 | 11.3 | 18.2 |
| CCn1nc(C)cc1C(=O)Nc1nc2cc(C(N)=O)cc(OC)c2n1CCOCCNC(=O)c1ccc2ccccc2c1 | > 100 | > 100 | > 100 | > 100 |
| CCn1nc(C)cc1C(=O)Nc1nc2cc(C(N)=O)cc(OC)c2n1NCCCNC(=O)Nc1ccc2ccccc2c1 | > 100 | > 100 | > 100 | > 100 |
| CCn1nc(C)cc1C(=O)Nc1nc2cc(C(N)=O)cc(OC)c2n1NCCCC(=O)N(C)Cc1ccccc1 | 11.2 | > 100 | > 100 | > 100 |
| CCn1nc(C)cc1C(=O)Nc1nc2cc(C(N)=O)cc(OCCCN3CCOCC3)c2n1NCCCNC(=O)c1ccc2ccccc2c1 | 2.19 | > 100 | 18.6 | 28.1 |
| CCn1nc(C)cc1C(=O)Nc1nc2cc(C(N)=O)cc(OC)c2n1NCCCC(=O)NCc1ccc(Cl)cc1Br | 96.3 | > 100 | > 100 | > 100 |

Now from value to molecule, other results behind:

| EC50 [1] [µM] | EC50 [2] [µM] | SMILES | IC50 [3] [µM] | IC50 [4] [µM] |
| --- | --- | --- | --- | --- |
| > 100 | > 100 | CCn1nc(C)cc1C(=O)Nc1nc2cc(C(N)=O)cc(OC)c2n1C/C=C/CNC(=O)Cc1ccc(C(F)(F)F)cc1 | > 100 | > 100 |
| > 100 | > 100 | CCn1nc(C)cc1C(=O)Nc1nc2cc(C(N)=O)cc(OC)c2n1C/C=C/CNC1CCOCC1 | > 100 | > 100 |
| > 100 | > 100 | CCn1nc(C)cc1C(=O)Nc1nc2cc(C(N)=O)cc(OC)c2n1CCCNC(=O)c1ccccc1 | > 100 | > 100 |
| > 100 | > 100 | CCn1nc(C)cc1C(=O)Nc1nc2cc(C(N)=O)cc(OC)c2n1C/C=C/CNC(=O)Cc1ccccc1 | > 100 | > 100 |
| > 100 | > 100 | CCn1nc(C)cc1C(=O)Nc1nc2cc(C(N)=O)cc(OC)c2n1C/C=C/CNC(=O)c1cc(F)nc(F)c1 | > 100 | > 100 |
| > 100 | > 100 | CCn1nc(C)cc1C(=O)Nc1nc2cc(C(N)=O)cc(OC)c2n1C/C=C/Cn1c(C)nc2cc(C(N)=O)ccc21 | > 100 | > 100 |
| > 100 | > 100 | CCn1nc(C)cc1C(=O)Nc1nc2cc(C(N)=O)cc(OC)c2n1C/C=C/CNC(=O)NCc1ccccc1 | > 100 | > 100 |
| > 100 | > 100 | CCn1nc(C)cc1C(=O)Nc1nc2cc(C(N)=O)cc(OC)c2n1C/C=C/CNc1ncc(C(N)=O)cn1 | > 100 | > 100 |
| > 100 | > 100 | CCn1nc(C)cc1C(=O)Nc1nc2cc(C(N)=O)cc(OC)c2n1C/C=C/CNC(=O)c1ccc2ncccc2c1 | > 100 | > 100 |
| > 100 | > 100 | CCn1nc(C)cc1C(=O)Nc1nc2cc(C(N)=O)cc(OC)c2n1CCCN1CCC(C(=O)Nc2ccccc2)CC1 | > 100 | > 100 |
| > 100 | > 100 | CCn1nc(C)cc1C(=O)Nc1nc2cc(C(N)=O)cc(OC)c2n1C/C=C/CNC(=O)C1CCCC1 | > 100 | > 100 |
| > 100 | > 100 | CCn1nc(C)cc1C(=O)Nc1nc2cc(C(N)=O)cc(OC)c2n1C/C=C/CNC(=O)Cc1cnccn1 | > 100 | > 100 |
| > 100 | > 100 | CCn1nc(C)cc1C(=O)Nc1nc2cc(C(N)=O)cc(OC)c2n1C/C=C/CNC(=O)c1ccccn1 | > 100 | > 100 |
| > 100 | > 100 | CCn1nc(C)cc1C(=O)Nc1nc2cc(C(N)=O)cc(OC)c2n1C/C=C/CNC(=O)c1ccc(Cl)cc1 | > 100 | > 100 |
| > 100 | > 100 | CCn1nc(C)cc1C(=O)Nc1nc2cc(C(N)=O)cc(OC)c2n1C/C=C/CNC(=O)c1cc(C(F)(F)F)cc(C(F)(F)F)c1 | > 100 | > 100 |
| > 100 | > 100 | CCn1nc(C)cc1C(=O)Nc1nc2cc(C(N)=O)cc(OC)c2n1C/C=C/CNC1CCN(C)CC1 | > 100 | > 100 |
| > 100 | > 100 | CCn1nc(C)cc1C(=O)Nc1nc2cc(C(N)=O)cc(OC)c2n1C/C=C/Cn1c(C(F)(F)F)nc2cc(C(N)=O)ccc21 | > 100 | > 100 |
| > 100 | > 100 | CCn1nc(C)cc1C(=O)Nc1nc2cc(C(N)=O)cc(OC)c2n1C/C=C/CNC(=O)c1cnccn1 | > 100 | > 100 |
| > 100 | > 100 | CCn1nc(C)cc1C(=O)Nc1nc2cc(C(N)=O)cc(OC)c2n1C/C=C/CNC(=O)c1cnc(OC)cn1 | > 100 | > 100 |
| > 100 | > 100 | CCn1nc(C)cc1C(=O)Nc1nc2cc(C(N)=O)cc(OC)c2n1CCCN1CCC(NC(=O)c2ccc3ccccc3c2)CC1 | > 100 | > 100 |
| 9.81 | > 100 | CCn1nc(C)cc1C(=O)Nc1nc2cc(C(N)=O)cc(OC)c2n1CCCC(=O)Nc1ccccc1 | > 100 | > 100 |
| > 100 | > 100 | CCn1nc(C)cc1C(=O)Nc1nc2cc(C(N)=O)cc(OC)c2n1C/C=C/CNC(=O)c1cnc(C(F)(F)F)cn1 | > 100 | > 100 |
| > 100 | > 100 | CCn1nc(C)cc1C(=O)Nc1nc2cc(C(N)=O)cc(OC)c2n1C/C=C/CNC1CCC(N(C)C)CC1 (stereo unspecified) | > 100 | > 100 |
| > 100 | > 100 | CCn1nc(C)cc1C(=O)Nc1nc2cc(C(N)=O)cc(OC)c2n1C/C=C/CNC(=O)c1ccc2ccccc2c1 | > 100 | > 100 |
| > 100 | > 100 | CCn1nc(C)cc1C(=O)Nc1nc2cc(C(N)=O)cc(OC)c2n1C/C=C/CNC(=O)Nc1ccc2ccccc2c1 | > 100 | > 100 |
